# According to patent US8791107B2, “N-substituted oxazinopteridines and oxazinopteridinones” (Takeda Pharmaceutical Company Limited, priority 2011, dated 2014):
# Biological target: T1, PI3Kδ (Homo sapiens, UniProt O00329)
# T1 construct: The protein is full length and co-expressed with untagged PIK3R1; GST; purchased Invitrogen PV5274
# Assay: PI3Kδ inhibition, modified PIK3CD Adapta TR-FRET assay
# Assay type: biochemical
# Details: recombinant GST-tagged full length PIK3CD co-expressed with PIK3R1 (p85α); 2 μM ATP, 50 μM PIP2; read-out: PI3Kδ Inhibition (pIC50) (converted)
# Experimental: The activity of compounds as PI3Kδ inhibitors may be determined by a variety of methods, including in vitro and in vivo methods. The following in vitro assay measures a test compound's ability to inhibit PI3Kδ-mediated phosphorylation of PIP2 and ATP.
# Recombinant GST-tagged PIK3CD is purchased from Invitrogen (Part Number: PV5274). The protein is full length and co-expressed with untagged PIK3R1, phosphoinositide-3-kinase regulatory subunit 1 (p85α). The protein is stored at −20° C. in 50 mM TRIS (pH 7.5), 150 mM NaCl, 0.5 mM EDTA, 0.02% Triton® X-100, 2 mM DTT, and 50% glycerol.
# A modified PIK3CD Adapta® assay (Invitrogen, Carlsbad, Calif.) is used to measure PI3Kδ inhibition of the example compounds. The assay has two phases. In the first phase, kinase reaction components, which include the enzyme (PIK3CD), substrates (PIP2, ATP), test compound (inhibitor), and assay buffer are added to each well, and the reaction is allowed to incubate for a pre-determined period of time. […] In the presence of the inhibitor, the amount of ADP formed by the kinase reaction is reduced, and the resulting intact antibody-tracer interaction maintains a high TR-FRET signal.
# The reaction buffer contains 50 mM Hepes (pH 7.5), 3 mM MgCl2, 1 mM EGTA, 100 mM NaCl, 0.03% CHAPS; 2 mM DTT is added fresh prior to each experiment. […] Next, test compounds (2 μL) from a source plate (5% dilution plate) are introduced into the wells. The final DMSO concentration in each assay well is 1%. […] Other wells contain test compounds serially diluted across the plate 11 times for a total of 12 data points. The kinase reactions are carried out at room temperature and are initiated by the addition of 4 μL of solution containing 2 μM ATP and 50 μM PIP2. […] This emission signal is referenced or “ratioed” to the emission from Eu at 620 nm. […] The percent inhibition for a given inhibitor concentration is computed from % conversion for the reaction and for the positive and negative controls.
# T1 sequence (O00329 whole entry): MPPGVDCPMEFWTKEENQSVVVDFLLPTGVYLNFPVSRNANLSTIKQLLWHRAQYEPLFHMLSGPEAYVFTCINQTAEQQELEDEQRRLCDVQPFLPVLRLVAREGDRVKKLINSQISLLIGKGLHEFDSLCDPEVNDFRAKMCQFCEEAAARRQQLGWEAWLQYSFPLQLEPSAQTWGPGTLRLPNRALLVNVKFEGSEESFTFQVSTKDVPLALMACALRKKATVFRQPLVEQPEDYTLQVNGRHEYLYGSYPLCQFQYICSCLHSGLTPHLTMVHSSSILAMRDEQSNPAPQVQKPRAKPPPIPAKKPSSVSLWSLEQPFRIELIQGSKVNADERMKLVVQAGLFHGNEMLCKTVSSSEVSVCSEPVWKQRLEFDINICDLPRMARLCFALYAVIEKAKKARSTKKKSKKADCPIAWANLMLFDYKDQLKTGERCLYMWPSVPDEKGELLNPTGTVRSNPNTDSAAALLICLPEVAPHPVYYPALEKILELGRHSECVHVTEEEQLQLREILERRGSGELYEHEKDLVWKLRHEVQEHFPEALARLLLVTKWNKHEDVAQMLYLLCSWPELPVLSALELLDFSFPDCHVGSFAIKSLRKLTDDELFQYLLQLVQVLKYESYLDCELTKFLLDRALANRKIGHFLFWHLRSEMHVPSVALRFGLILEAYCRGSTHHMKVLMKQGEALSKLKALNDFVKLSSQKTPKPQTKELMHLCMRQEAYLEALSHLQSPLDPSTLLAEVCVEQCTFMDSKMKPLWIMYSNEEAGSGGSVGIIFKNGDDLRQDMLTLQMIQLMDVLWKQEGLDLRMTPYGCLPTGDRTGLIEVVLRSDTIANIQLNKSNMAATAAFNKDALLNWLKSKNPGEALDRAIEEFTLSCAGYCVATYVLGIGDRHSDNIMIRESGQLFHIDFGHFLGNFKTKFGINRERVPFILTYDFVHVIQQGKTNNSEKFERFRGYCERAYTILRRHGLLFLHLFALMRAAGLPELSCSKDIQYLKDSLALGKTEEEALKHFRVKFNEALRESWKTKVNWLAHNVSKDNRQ
# T1 sequence (P27986 whole entry partner): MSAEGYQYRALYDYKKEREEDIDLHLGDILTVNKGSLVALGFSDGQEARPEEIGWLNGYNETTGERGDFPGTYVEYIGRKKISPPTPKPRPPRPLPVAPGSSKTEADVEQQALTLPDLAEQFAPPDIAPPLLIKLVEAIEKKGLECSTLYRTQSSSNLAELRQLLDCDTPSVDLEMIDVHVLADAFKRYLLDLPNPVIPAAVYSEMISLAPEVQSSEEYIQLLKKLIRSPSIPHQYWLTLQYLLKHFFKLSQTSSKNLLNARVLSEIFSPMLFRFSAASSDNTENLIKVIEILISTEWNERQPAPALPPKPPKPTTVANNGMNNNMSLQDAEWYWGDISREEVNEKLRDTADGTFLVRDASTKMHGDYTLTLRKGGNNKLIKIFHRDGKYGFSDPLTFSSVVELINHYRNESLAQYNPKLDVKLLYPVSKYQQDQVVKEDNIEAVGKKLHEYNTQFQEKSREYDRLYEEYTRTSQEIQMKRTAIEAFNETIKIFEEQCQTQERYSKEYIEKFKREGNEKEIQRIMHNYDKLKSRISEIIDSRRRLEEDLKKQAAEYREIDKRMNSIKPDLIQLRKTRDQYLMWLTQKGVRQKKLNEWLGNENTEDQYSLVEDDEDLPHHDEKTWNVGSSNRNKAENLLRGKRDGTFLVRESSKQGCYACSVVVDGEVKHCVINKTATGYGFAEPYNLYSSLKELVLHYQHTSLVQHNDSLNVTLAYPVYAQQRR
row,SMILES,IC50 [nM]
1,"O=C1Nc2cnc(-c3cccc4c3OCO4)nc2N2CCOCC12 (centres unmarked) [Example 151, 2-(benzo[d][1,3]dioxol-4-yl)-6a,7,9,10-tetrahydro-[1,4]oxazino[3,4-h]pteridin-6(5H)-one]",5010
2,"CS(=O)(=O)c1ccc(CN2C(=O)C3COCCN3c3nc(-c4ccc5cc[nH]c5c4)ncc32)cc1 (centres unmarked) [Example 100, 2-(1H-indol-6-yl)-5-(4-(methylsulfonyl)benzyl)-6a,7,9,10-tetrahydro-[1,4]oxazino[3,4-h]pteridin-6(5H)-one]",3980
3,"c1cc(-c2ncc3c(n2)N2CCOCC2CN3)c2nc[nH]c2c1 (centres unmarked) [Example 10, 2-(1H-benzo[d]imidazol-4-yl)-5,6,6a,7,9,10-hexahydro-[1,4]oxazino[3,4-h]pteridine]",3160
4,"c1ccc(OCCN2CC3COCCN3c3nc(-c4cccc5[nH]ccc45)ncc32)cc1 (centres unmarked) [Example 32, 2-(1H-indol-4-yl)-5-(2-phenoxyethyl)-5,6,6a,7,9,10-hexahydro-[1,4]oxazino[3,4-h]pteridine]",79.4
5,"CS(=O)(=O)c1ccc(CN2C(=O)C3COCCN3c3nc(-c4cnc5cc[nH]c5c4)ncc32)cc1 (centres unmarked) [Example 121, 5-(4-(methylsulfonyl)benzyl)-2-(1H-pyrrolo[3,2-b]pyridin-6-yl)-6a,7,9,10-tetrahydro-[1,4]oxazino[3,4-h]pteridin-6(5H)-one]",31.6
6,"CC(C)(O)CCN1C[C@@H]2COCCN2c2nc(-c3cncc4[nH]ccc34)ncc21 [Example 170, (R)-4-(2-(1H-pyrrolo[2,3-c]pyridin-4-yl)-6a,7,9,10-tetrahydro-[1,4]oxazino[3,4-h]pteridin-5(6H)-yl)-2-methylbutan-2-ol]",6.31
7,"N#Cc1ccccc1CN1CC2COCCN2c2nc(-c3cccc4[nH]ccc34)ncc21 (centres unmarked) [Example 45, 2-((2-(1H-indol-4-yl)-6a,7,9,10-tetrahydro-[1,4]oxazino[3,4-h]pteridin-5(6H)-yl)methyl)benzonitrile]",251
8,"c1ccc(-c2nnc(CN3CC4COCCN4c4nc(-c5cccc6[nH]ccc56)ncc43)o2)cc1 (centres unmarked) [Example 38, 2-(1H-indol-4-yl)-5-((5-phenyl-1,3,4-oxadiazol-2-yl)methyl)-5,6,6a,7,9,10-hexahydro-[1,4]oxazino[3,4-h]pteridine]",12.6
9,"NC(=O)c1ccc(CN2CC3COCCN3c3nc(-c4cccc5[nH]ccc45)ncc32)cc1 (centres unmarked) [Example 78, 4-((2-(1H-indol-4-yl)-6a,7,9,10-tetrahydro-[1,4]oxazino[3,4-h]pteridin-5(6H)-yl)methyl)benzamide]",20
10,"C[C@@H](c1ccccc1)N1C(=O)C2COCCN2c2nc(-c3cc[nH]n3)ncc21 (mixture of isomers) [Example 97, 5-((5)-1-phenylethyl)-2-(1H-pyrazol-3-yl)-6a,7,9,10-tetrahydro-[1,4]oxazino[3,4-h]pteridin-6(5H)-one]",1000
11,"CS(=O)(=O)c1ccc(CN2C(=O)C3COCCN3c3nc(-c4cccc(-n5cccn5)c4)ncc32)cc1 (centres unmarked) [Example 128, 2-(3-(1H-pyrazol-1-yl)phenyl)-5-(4-(methylsulfonyl)benzyl)-6a,7,9,10-tetrahydro-[1,4]oxazino[3,4-h]pteridin-6(5H)-one]",501
12,"O=C1C2COCCN2c2nc(-c3cccc4[nH]ccc34)ncc2N1C1CCc2ccc(Cl)cc21 (centres unmarked) [Example 146, 5-(6-chloro-2,3-dihydro-1H-inden-1-yl)-2-(1H-indol-4-yl)-6a,7,9,10-tetrahydro-[1,4]oxazino[3,4-h]pteridin-6(5H)-one]",31.6
13,"CNS(=O)(=O)c1cccc(-c2ncc3c(n2)N2CCOCC2C(=O)N3Cc2ccc(S(C)(=O)=O)cc2)c1 (centres unmarked) [Example 111, N-methyl-3-(5-(4-(methylsulfonyl)benzyl)-6-oxo-5,6,6a,7,9,10-hexahydro-[1,4]oxazino[3,4-h]pteridin-2-yl)benzenesulfonamide]",1580
14,"CNC(=O)Nc1ccc(-c2ncc3c(n2)N2CCOCC2C(=O)N3[C@@H](C)c2ccc(Cl)cc2)cc1 (single isomer, unassigned) [Example 85]",12.6
15,"Cc1c[nH]c2c(F)ccc(-c3ncc4c(n3)N3CCOCC3C(=O)N4Cc3ccc(S(C)(=O)=O)cc3)c12 (centres unmarked) [Example 143, 2-(7-fluoro-3-methyl-1H-indol-4-yl)-5-(4-(methylsulfonyl)benzyl)-6a,7,9,10-tetrahydro-[1,4]oxazino[3,4-h]pteridin-6(5H)-one]",2000
16,"CS(=O)(=O)c1ccc(CN2C(=O)C3COCCN3c3nc(-c4ccc5[nH]ncc5c4)ncc32)cc1 (centres unmarked) [Example 114, 2-(1H-indazol-5-yl)-5-(4-(methylsulfonyl)benzyl)-6a,7,9,10-tetrahydro-[1,4]oxazino[3,4-h]pteridin-6(5H)-one]",200
17,"CC(C)(O)c1cccc(-c2ncc3c(n2)N2CCOC[C@H]2CN3CC(=O)NCC2CCOCC2)c1 [Example 83, (R)-2-(2-(3-(2-hydroxypropan-2-yl)phenyl)-6a,7,9,10-tetrahydro-[1,4]oxazino[3,4-h]pteridin-5(6H)-yl)-N-((tetrahydro-2H-pyran-4-yl)methyl)acetamide]",1000
18,"CC(=O)N1CC2COCCN2c2nc(-n3c(C(F)F)nc4ccccc43)ncc21 (centres unmarked) [Example 55, 1-(2-(2-(difluoromethyl)-1H-benzo[c]imidazol-1-yl)-6a,7,9,10-tetrahydro-[1,4]oxazino[3,4-h]pteridin-5(6H)-yl)ethanone]",631

# Continued, values first:
row,IC50 [nM],SMILES
1,251,"O=C(CN1C[C@@H]2COCCN2c2nc(-c3ccc(F)c(CO)c3)ncc21)NCC1CCOCC1 [Example 220, (R)-2-(2-(4-fluoro-3-(hydroxymethyl)phenyl)-6a,7,9,10-tetrahydro-[1,4]oxazino[3,4-h]pteridin-5(6H)-yl)-N-((tetrahydro-2H-pyran-4-yl)methyl)acetamide]"
2,3160,"CS(=O)(=O)c1ccc(CN2C(=O)C3COCCN3c3nc(-c4cccc(-c5cc[nH]n5)c4)ncc32)cc1 (centres unmarked) [Example 110, 2-(3-(1H-pyrazol-3-yl)phenyl)-5-(4-(methylsulfonyl)benzyl)-6a,7,9,10-tetrahydro-[1,4]oxazino[3,4-h]pteridin-6(5H)-one]"
3,6.31,"O=C(O)CCCN1C[C@@H]2COCCN2c2nc(-c3cccc4[nH]ccc34)ncc21 [Example 196, (R)-4-(2-(1H-indol-4-yl)-6a,7,9,10-tetrahydro-[1,4]oxazino[3,4-h]pteridin-5(6H)-yl)butanoic acid]"
4,126,"CS(=O)(=O)c1ccc(CN2C(=O)C3COCCN3c3nc(-c4cccc(N)c4)ncc32)cc1 (centres unmarked) [Example 103, 2-(3-aminophenyl)-5-(4-(methylsulfonyl)benzyl)-6a,7,9,10-tetrahydro-[1,4]oxazino[3,4-h]pteridin-6(5H)-one]"
5,1260,"N#Cc1cccc(-c2ncc3c(n2)N2CCOC[C@H]2CN3CC(=O)NCC2CCOCC2)c1 [Example 218, (R)-2-(2-(3-cyanophenyl)-6a,7,9,10-tetrahydro-[1,4]oxazino[3,4-h]pteridin-5(6H)-yl)-N-((tetrahydro-2H-pyran-4-yl)methyl)acetamide]"
6,39.8,"Cc1nnc(CN2C(=O)C3COCCN3c3nc(-n4c(C(F)F)nc5ccccc54)ncc32)o1 (centres unmarked) [Example 157, 2-(2-(difluoromethyl)-1H-benzo[d]imidazol-1-yl)-5-((5-methyl-1,3,4-oxadiazol-2-yl)methyl)-6a,7,9,10-tetrahydro-[1,4]oxazino[3,4-h]pteridin-6(5H)-one]"
7,2510,"CNC(=O)Nc1ccc(-c2ncc3c(n2)N2CCOCC2CN3Cc2ccc(Cl)cc2)cc1 (centres unmarked) [Example 63, 1-(4-(5-(4-chlorobenzyl)-5,6,6a,7,9,10-hexahydro-[1,4]oxazino[3,4-h]pteridin-2-yl)phenyl)-3-methylurea]"
8,10,"c1cc(-c2ncc3c(n2)N2CCOC[C@H]2CN3Cc2cnco2)c2cc[nH]c2c1 [Example 185, (R)-2-(1H-indol-4-yl)-5-(oxazol-5-ylmethyl)-5,6,6a,7,9,10-hexahydro-[1,4]oxazino[3,4-h]pteridine]"
9,3160,"CC(=O)N1CC2COCCN2c2nc(-n3c(C)nc4ccccc43)ncc21 (centres unmarked) [Example 56, 1-(2-(2-methyl-1H-benzo[d]imidazol-1-yl)-6a,7,9,10-tetrahydro-[1,4]oxazino[3,4-h]pteridin-5(6H)-yl)ethanone]"
10,5.01,"CS(=O)(=O)c1ccc(CN2CC3COCCN3c3nc(-c4cncc5[nH]ccc45)ncc32)cc1 (centres unmarked) [Example 23, 5-(4-(methylsulfonyl)benzyl)-2-(1H-pyrrolo[2,3-c]pyridin-4-yl)-5,6,6a,7,9,10-hexahydro-[1,4]oxazino[3,4-h]pteridine]"
11,126,"Nc1ccc(-c2ncc3c(n2)N2CCOC[C@H]2CN3CC(=O)NCC2CCOCC2)cn1 [Example 221, (R)-2-(2-(6-aminopyridin-3-yl)-6a,7,9,10-tetrahydro-[1,4]oxazino[3,4-h]pteridin-5(6H)-yl)-N-((tetrahydro-2H-pyran-4-yl)methyl)acetamide]"
